In patent US20090105562A1, “SYSTEM AND METHODS FOR SCREENING OR ANALYZING TARGETS” (TAIPEI VETERANS GENERAL HOSPITAL, priority 2007, published 2009):

Assays:
c-FLIP [1] = experiment: c-FLIP mRNA expression in fluoxetine-treated NSCs (real-time RT-PCR); type: cell-based, rat; conditions: FL-treated NSCs
Procedure: All animal used were treated in accordance with the Animal Care and Use Committee guideline at Taipei Veterans General Hospital. Adult Sprague-Dawley rats (8 weeks old, 250 g) were anesthetized with intraperitoneal phenobarbital (Sigma, USA). The location of their brains was mapped: then, the brain was surgically separated from the hippocampus region with the procedure. Tissues from the hippocampus of the adult SD rats were dissociated and incubated in Hank's balanced salt solution (HBSS) containing collagenase (78 units/ml) and hyaluronidase (38 units/ml) for 10 mins at 37° C. The tissues were then mechanically dissected and placed in a trypsin solution (1.33 mg/ml) at 37° C. for another 10 mins. Dissociated cells were then centrifuged at 150 g for 5 mins. […] Viable cells were counted by trypan blue exclusion and plated as 5000 cells/200 μL per well in 96-well plates (Corning, Acton, Mass.) with no substrate pretreatment.
For real-time RT-PCR, the total RNA was extracted using the RNAeasy kit (Qiagen, Valencia, Calif., USA) as previously described C. […] The quantification in the unknown samples was performed by the LightCycler Relative Quantification Software version 3.3 (Roche Molecular Systems, Alameda, Calif., USA). […]

c-FLIP promoter = c-FLIP promoter luciferase assay in fluoxetine-treated NSCs; type: cell-based, rat; conditions: fluoxetine 20 μm
Procedure: All animal used were treated in accordance with the Animal Care and Use Committee guideline at Taipei Veterans General Hospital. Adult Sprague-Dawley rats (8 weeks old, 250 g) were anesthetized with intraperitoneal phenobarbital (Sigma, USA). The location of their brains was mapped: then, the brain was surgically separated from the hippocampus region with the procedure. Tissues from the hippocampus of the adult SD rats were dissociated and incubated in Hank's balanced salt solution (HBSS) containing collagenase (78 units/ml) and hyaluronidase (38 units/ml) for 10 mins at 37° C. The tissues were then mechanically dissected and placed in a trypsin solution (1.33 mg/ml) at 37° C. for another 10 mins. Dissociated cells were then centrifuged at 150 g for 5 mins. The enzyme solution was then removed and replaced with serum-free culture media composed of Dulbecco modified Eagle medium (DMEM) and F-12 nutrient (1:1) including insulin (25 μg/mL), transferrin (100 μg/mL), progesterone (20 nM), putrescine (60 μM), sodium selenite (30 nM), and human […] epidermal growth factor (EGF) 20 ng/mL and fibroblast growth factor-basic (bFGF) 20 ng/mL (R&D Systems, Minneapolis, Minn.). Viable cells were counted by trypan blue exclusion and plated as 5000 cells/200 μL per well in 96-well plates (Corning, Acton, Mass.) with no substrate pretreatment. […]

c-FLIP [2] = experiment: Protein levels of c-FLIP and pro-caspases in fluoxetine-treated NSCs (Western, immunostaining); type: cell-based, rat
Procedure: All animal used were treated in accordance with the Animal Care and Use Committee guideline at Taipei Veterans General Hospital. Adult Sprague-Dawley rats (8 weeks old, 250 g) were anesthetized with intraperitoneal phenobarbital (Sigma, USA). The location of their brains was mapped: then, the brain was surgically separated from the hippocampus region with the procedure. Tissues from the hippocampus of the adult SD rats were dissociated and incubated in Hank's balanced salt solution (HBSS) containing collagenase (78 units/ml) and hyaluronidase (38 units/ml) for 10 mins at 37° C. The tissues were then mechanically dissected and placed in a trypsin solution (1.33 mg/ml) at 37° C. for another 10 mins. Dissociated cells were then centrifuged at 150 g for 5 mins. The enzyme solution was then removed and replaced with serum-free culture media composed of Dulbecco modified Eagle medium (DMEM) and F-12 nutrient (1:1) including insulin (25 μg/mL), transferrin (100 μg/mL), progesterone (20 nM), putrescine (60 μM), sodium selenite (30 nM), and human […] epidermal growth factor (EGF) 20 ng/mL and fibroblast growth factor-basic (bFGF) 20 ng/mL (R&D Systems, Minneapolis, Minn.). Viable cells were counted by trypan blue exclusion and plated as 5000 cells/200 μL per well in 96-well plates (Corning, Acton, Mass.) with no substrate pretreatment.
The pGL3-FLIP was obtained from based on T. Bartke et al., Oncogene 20 (2001) 571-580. The c-FLIP promoter deletion constructs pGL3-FLIP978, pGL3-FLIP696, pGL3-FLIP414 and pGL3-FLIP132 were generated by PCR amplification of corresponding DNA sequences from pGL3-FLIP using the following forward primers 5′-[…] […]
An avidin-biotin complex method was used for the immunohistochemical staining in the differentiated NSCs. […] Immunoreactive signals were detected with a mixture of biotinylated rabbit antimouse IgG and Fluoesave (Calbiochem, La Jolla, Calif., USA) under immunofluorescent microscope (Olympus FV300).

[3] = Bile duct microdialysis with HPLC-UV of unbound cefoperazone in rat bile; type: in vivo; conditions: male, Sprague-Dawley, bile microdialysate (bile duct), 360 min following cefoperazone intravenous administration (30 mg/kg), read-out: cefoperazone concentration in microdialysate from rat biliary duct
Procedure: Adult, male Sprague-Dawley rats (280-350 g) were obtained from the Laboratory Animal Center at National Yang-Ming University (Taipei, Taiwan). These animals were specifically pathogen-free and were allowed to acclimate to their environmentally controlled quarters (24±1° C. and 12:12 h light-dark cycle) for at least 5 days before the experiments began. At the start of experiments, the rats were anesthetized with urethane 0.8 g/ml and chloralose 0.08 g/ml ([…], i.p.). Throughout the experimental period, anesthesia was maintained by administering one quarter of the initial dose at each hour. The experimental animals were kept warm with a heating pad throughout the experiments.
The HPLC system consisted of a chromatographic pump (BAS PM-80, Bioanalytical System, West Lafayette, Ind., USA), an on-line injector (CMA/160, Stockholm, Sweden) equipped with a 20 μl sample loop and a UV detector (Soma S-3702, Tokyo, Japan). […] Output signal from the HPLC-UV was recorded using an EZChrom chromatographic data system (Scientific Software, San Ramon, Calif., USA). […]
For in vivo recovery, normal saline solution containing cefoperazone (50 or 100 μg/ml) were pumped through the probes at a constant flow rate (2 μl/min) using the infusion pump (CMA/100). After a stabilization period of 2 h, the inlet (C^in) and outlet (C^out) concentrations of cefoperazone were determined by HPLC. […]

[4] = different concentrations of fluoxetine treatment

c-FLIP promoter (−414 to −133 bp) region activity (c-FLIP promoter)	SMILES	mRNA expression of c-FLIP (c-FLIP [1])	protein expression of c-FLIP (c-FLIP [2]; FL-treated NSCs)	protein level of inactive caspase 3 (pro-form) (c-FLIP [2]; [4])	protein level of inactive caspase 8 (pro-form) (c-FLIP [2]; [4])	concentration at 360 min [3] [µg/mL]
Activates	CNCCC(Oc1ccc(C(F)(F)F)cc1)c1ccccc1 (stereo not drawn) [FL, fluoxetine]	up-regulated	up-regulated	not decreased	not decreased	–
–	CCN1CCN(C(=O)N[C@@H](C(=O)N[C@@H]2C(=O)N3C(C(=O)O)=C(CSc4nnnn4C)CS[C@H]23)c2ccc(O)cc2)C(=O)C1=O [cefoperazone]	–	–	–	–	27.8
